Data as given in ChEMBL document CHEMBL1201862, “PubChem BioAssay data set” (2004).
Active and inactive are the calls of the source.

Legend:
[1] = system: Streptococcus; experiment: GAS UMAA2166 growth inhibition – luminescence, BacTiterGlo, counter-screen for streptokinase expression inhibitor project, dose response (AID 1915); format: functional, organism-based;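 further: potency for reduction of bacterial viability or growth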
[2] = target: T1, Streptokinase A (Streptococcus pyogenes serotype M1, UniProt P10520); experiment: viability-normalized secreted streptokinase activity reduction – plasminogen activation absorbance, OD405, dose response (AID 1914); format: functional, Streptococcus pyogenes M1 GAS;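 further: secreted streptokinase activity via plasminogen activation per viability signal from cell pellet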
T1 sequence (P10520 whole entry): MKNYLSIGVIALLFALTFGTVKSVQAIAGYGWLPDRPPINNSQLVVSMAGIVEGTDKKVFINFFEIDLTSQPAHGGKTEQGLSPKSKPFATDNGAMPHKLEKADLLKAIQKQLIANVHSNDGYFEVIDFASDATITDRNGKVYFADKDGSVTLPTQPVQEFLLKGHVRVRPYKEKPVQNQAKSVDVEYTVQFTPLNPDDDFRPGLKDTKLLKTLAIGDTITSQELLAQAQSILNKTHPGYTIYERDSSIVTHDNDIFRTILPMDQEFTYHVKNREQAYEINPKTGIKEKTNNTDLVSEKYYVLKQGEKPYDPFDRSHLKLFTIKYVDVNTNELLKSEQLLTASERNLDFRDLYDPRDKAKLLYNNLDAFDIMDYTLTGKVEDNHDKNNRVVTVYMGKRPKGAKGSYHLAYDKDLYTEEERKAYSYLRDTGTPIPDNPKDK

[3] = target: T2, Corticotropin-releasing factor receptor 2/Corticotropin-releasing factor-binding protein (Homo sapiens, UniProt P24387+Q13324); experiment: activators of CRF receptor 2 with binding protein – uHTS hits, confirmation (AID 602473); format: functional; conditions: read-out: EC50_Mean
T2 sequence (Q13324 whole entry): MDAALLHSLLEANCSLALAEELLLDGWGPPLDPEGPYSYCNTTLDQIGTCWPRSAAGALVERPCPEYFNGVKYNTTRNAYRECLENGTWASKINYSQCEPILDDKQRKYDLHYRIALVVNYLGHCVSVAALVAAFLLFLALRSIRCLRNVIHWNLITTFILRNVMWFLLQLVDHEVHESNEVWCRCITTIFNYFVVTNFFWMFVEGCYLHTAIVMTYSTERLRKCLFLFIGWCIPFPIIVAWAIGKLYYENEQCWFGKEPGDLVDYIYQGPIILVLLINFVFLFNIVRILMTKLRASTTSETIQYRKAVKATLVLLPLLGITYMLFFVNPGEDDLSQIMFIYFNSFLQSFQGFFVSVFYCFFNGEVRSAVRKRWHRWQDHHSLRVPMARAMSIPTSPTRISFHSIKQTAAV
T2 sequence (P24387 whole entry): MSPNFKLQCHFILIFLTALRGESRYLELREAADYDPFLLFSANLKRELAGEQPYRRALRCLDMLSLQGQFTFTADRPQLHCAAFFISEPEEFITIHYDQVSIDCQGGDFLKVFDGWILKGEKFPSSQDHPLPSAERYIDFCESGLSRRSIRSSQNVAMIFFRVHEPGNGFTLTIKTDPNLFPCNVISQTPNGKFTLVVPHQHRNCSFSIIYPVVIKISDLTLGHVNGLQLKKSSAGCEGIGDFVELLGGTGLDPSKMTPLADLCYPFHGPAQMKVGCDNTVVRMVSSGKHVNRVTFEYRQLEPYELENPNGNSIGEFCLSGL

[4] = system: Streptococcus sp. 'group A'; experiment: Streptococcus pyogenes SK(-)GAS viability under kanamycin – luminescence, BacTiterGlo, confirmation, counter-screen for streptokinase expression inhibitor project, dose response (AID 1900); format: functional, organism-based
[5] = target: NACHT, LRR and PYD domains-containing protein 3 (Homo sapiens, UniProt Q96P20); experiment: NALP3 inhibitors in yeast, dose response, luminescent (AID 488799); format: functional
[6] = target: Albumin (Bos taurus, UniProt P02769); experiment: Counterscreen for inhibitors of T-cell receptor (TCR)-CD3 interaction: Fluorescence-based biochemical high throughput dose response assay to identify inhibitors of T-cell receptor (TCR)-CD3 interaction using a TAMRA-labeled BSA probe.; format: functional
[7] = target: DNA dC->dU-editing enzyme APOBEC-3A (Homo sapiens, UniProt P31941); experiment: Dose Response confirmation of small molecule APOBEC3A DNA Deaminase Inhibitors via a fluorescence-based single-stranded DNA deaminase assay. [Related pubchem assays (depositor defined):AID493011, AID493024]; format: functional
[8] = target: DNA dC->dU-editing enzyme APOBEC-3G (Homo sapiens, UniProt Q9HC16); format: functional;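 further: Dose-response counterscreen measuring inhibition of APOBEC3G DNA deaminase activity, run while confirming APOBEC3A inhibitors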
[9] = target: T3, Dual specificity protein phosphatase 6 (Rattus norvegicus, UniProt Q64346); format: functional;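 further: confirmatory in vitro dose-response testing of MKP-3 inhibition; recombinant His-tagged MKP-3 made in E. coli BL21 with OMFP substrate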
T3 sequence (Q64346 whole entry): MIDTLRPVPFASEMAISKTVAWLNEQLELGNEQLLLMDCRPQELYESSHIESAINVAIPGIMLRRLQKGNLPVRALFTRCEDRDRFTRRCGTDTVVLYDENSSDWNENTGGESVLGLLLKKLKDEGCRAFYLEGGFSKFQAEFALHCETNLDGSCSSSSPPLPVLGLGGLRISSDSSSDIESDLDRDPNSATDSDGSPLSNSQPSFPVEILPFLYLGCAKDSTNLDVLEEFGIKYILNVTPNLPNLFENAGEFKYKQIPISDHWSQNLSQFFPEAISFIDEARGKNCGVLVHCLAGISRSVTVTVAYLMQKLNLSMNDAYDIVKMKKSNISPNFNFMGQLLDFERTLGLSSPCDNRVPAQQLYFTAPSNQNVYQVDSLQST

[10] = target: T4, Dual specificity protein phosphatase 3 (Homo sapiens, UniProt P51452); experiment: SAR VHR1 absorbance Assay for In Vitro dose response studies. [Related pubchem assays (depositor defined):AID1654, AID1661, AID1878, AID1992, AID2004]
[11] = target: T4, Dual specificity protein phosphatase 3; experiment: SAR VHR1 Fluorescent Assay for In Vitro dose response studies. [Related pubchem assays (depositor defined):AID1654, AID1661, AID1878, AID1992, AID2004, AID2070, AID2085]; format: functional
[12] = target: T4, Dual specificity protein phosphatase 3; experiment: SAR VHR1 Fluorescent Assay for In Vitro dose response studies Set 2. [Related pubchem assays (depositor defined):AID1654, AID1661, AID1878]; format: functional
[13] = target: T5, Tyrosine-protein phosphatase non-receptor type 7 (Homo sapiens, UniProt P35236); experiment: redox-active compounds inhibiting HePTP phosphatase – biochemical, fluorescence, mechanism study (AID 2068); format: functional
T5 sequence (P35236 whole entry): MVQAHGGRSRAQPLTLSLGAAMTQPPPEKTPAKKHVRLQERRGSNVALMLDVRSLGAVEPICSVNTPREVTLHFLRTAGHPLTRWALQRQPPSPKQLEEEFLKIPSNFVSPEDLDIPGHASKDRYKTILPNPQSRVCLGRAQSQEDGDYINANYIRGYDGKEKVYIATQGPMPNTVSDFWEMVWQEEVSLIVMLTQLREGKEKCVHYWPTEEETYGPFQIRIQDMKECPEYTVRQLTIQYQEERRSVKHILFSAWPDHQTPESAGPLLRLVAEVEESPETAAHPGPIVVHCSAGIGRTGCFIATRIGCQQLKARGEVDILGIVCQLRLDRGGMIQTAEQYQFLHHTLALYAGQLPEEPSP

[14] = target: T6, Caspase-7 (Homo sapiens, UniProt P55210); experiment: activation of caspase-7 zymogen – biochemical, absorbance, counter-screen for procaspase-3 activator project, dose response (AID 489013)
T6 sequence (P55210 whole entry): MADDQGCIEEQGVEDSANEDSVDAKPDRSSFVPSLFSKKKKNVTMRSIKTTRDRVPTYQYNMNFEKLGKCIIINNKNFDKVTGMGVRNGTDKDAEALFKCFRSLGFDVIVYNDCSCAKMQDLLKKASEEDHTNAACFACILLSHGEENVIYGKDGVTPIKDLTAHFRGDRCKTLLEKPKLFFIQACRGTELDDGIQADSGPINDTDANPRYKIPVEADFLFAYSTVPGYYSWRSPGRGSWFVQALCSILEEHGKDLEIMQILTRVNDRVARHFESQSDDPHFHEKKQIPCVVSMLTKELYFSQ

[15] = target: T7, Caspase-3 (Homo sapiens, UniProt P42574); experiment: activation of caspase-3 zymogen – biochemical, absorbance, dose response (AID 489014)
T7 sequence (P42574 whole entry): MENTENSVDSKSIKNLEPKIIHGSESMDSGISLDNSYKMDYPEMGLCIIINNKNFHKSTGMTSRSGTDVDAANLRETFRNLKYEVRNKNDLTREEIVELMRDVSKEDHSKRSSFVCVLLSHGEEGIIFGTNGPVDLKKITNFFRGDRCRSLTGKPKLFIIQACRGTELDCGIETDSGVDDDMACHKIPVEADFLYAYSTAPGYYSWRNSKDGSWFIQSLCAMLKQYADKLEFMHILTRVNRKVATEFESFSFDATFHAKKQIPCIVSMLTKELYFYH

[16] = target: Hexokinase (Trypanosoma brucei, UniProt Q38C41); experiment: Confirmation assay for inhibitors of Trypanosoma brucei hexokinase 1-Analogue-first series. [Related pubchem assays (depositor defined):AID1430, AID1632, AID2516, AID2560, AID2579, AID2600, AID449725, AID492951]; format: functional
[17] = target: T8, Cannabinoid receptor 2 (Homo sapiens, UniProt P34972); experiment: SAR analysis of antagonists of the Cannabinoid Receptor 2 using an Image-Based Assay - Set 2. [Related pubchem assays (depositor defined):AID1961, AID1965]; format: functional
[18] = target: G-protein coupled receptor 55 (Homo sapiens, UniProt Q9Y2T6); experiment: SAR analysis of selective Agonists of GPR55 using an Image-Based Assay - Set 2. [Related pubchem assays (depositor defined):AID1961, AID1965]; format: functional
[19] = target: T9, G-protein coupled receptor 35 (Homo sapiens, UniProt Q9HC97); experiment: SAR analysis of Antagonists of the GPR35 Receptor using an Image-Based Assay - Set 4. [Related pubchem assays (depositor defined):[…]]; format: functional
[20] = target: T9, G-protein coupled receptor 35; experiment: SAR analysis of Agonists of the GPR35 Receptor using an Image-Based Assay - Set 3. [Related pubchem assays (depositor defined):AID1961, AID1965]; format: functional
[21] = target: T8, Cannabinoid receptor 2; experiment: SAR analysis of agonists of the Cannabinoid Receptor 2 using an Image-Based Assay - Set 2. [Related pubchem assays (depositor defined):AID1961, AID1965]; format: functional
[22] = target: T10, Cannabinoid receptor 1 (Homo sapiens, UniProt P21554); experiment: SAR analysis of antagonists of the Cannabinoid Receptor 1 using an Image-Based Assay - Set 3. [Related pubchem assays (depositor defined):AID1961, AID1965]; format: functional
[23] = target: T10, Cannabinoid receptor 1; experiment: SAR analysis of agonists of the Cannabinoid Receptor 1 using an Image-Based Assay - Set 3. [Related pubchem assays (depositor defined):AID1961, AID1965]; format: functional
[24] = DRD BJ cell killing, Ras synthetic lethality – DRD BJ fibroblasts, HRASV12, dry powder, dose response (AID 493049); format: functional, cell-based
[25] = BJeHLT cell viability loss – BJeHLT cells, dry powder, counter-screen for Ras selective lethality project, dose response (AID 493052); format: functional, cell-based; conditions: Homo sapiens
[26] = BJeH cell viability loss – BJeH cells, dry powder, counter-screen for Ras selective lethality project, dose response (AID 493054); format: functional, cell-based
[27] = HRAS-V12 fibroblast viability reduction – cell-based, Alamar Blue, dry powder, Ras selective lethality project, primary screen (AID 493045); format: functional; conditions: BJeLR

T8 sequence (P34972 whole entry): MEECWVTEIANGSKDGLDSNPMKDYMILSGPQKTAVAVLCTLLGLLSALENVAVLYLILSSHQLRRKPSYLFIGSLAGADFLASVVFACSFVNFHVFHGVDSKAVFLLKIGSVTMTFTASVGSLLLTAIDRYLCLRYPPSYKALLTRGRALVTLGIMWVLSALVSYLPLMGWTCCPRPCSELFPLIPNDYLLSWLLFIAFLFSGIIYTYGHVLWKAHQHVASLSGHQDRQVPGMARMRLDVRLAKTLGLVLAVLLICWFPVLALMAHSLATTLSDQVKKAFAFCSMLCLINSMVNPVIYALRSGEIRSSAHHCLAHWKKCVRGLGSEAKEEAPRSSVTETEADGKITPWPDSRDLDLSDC
T4 sequence (P51452 whole entry): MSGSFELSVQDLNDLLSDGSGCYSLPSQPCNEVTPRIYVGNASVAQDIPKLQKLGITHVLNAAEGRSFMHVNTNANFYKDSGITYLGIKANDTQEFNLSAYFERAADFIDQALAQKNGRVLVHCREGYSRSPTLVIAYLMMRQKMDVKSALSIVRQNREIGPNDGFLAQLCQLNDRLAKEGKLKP
T10 sequence (P21554 whole entry): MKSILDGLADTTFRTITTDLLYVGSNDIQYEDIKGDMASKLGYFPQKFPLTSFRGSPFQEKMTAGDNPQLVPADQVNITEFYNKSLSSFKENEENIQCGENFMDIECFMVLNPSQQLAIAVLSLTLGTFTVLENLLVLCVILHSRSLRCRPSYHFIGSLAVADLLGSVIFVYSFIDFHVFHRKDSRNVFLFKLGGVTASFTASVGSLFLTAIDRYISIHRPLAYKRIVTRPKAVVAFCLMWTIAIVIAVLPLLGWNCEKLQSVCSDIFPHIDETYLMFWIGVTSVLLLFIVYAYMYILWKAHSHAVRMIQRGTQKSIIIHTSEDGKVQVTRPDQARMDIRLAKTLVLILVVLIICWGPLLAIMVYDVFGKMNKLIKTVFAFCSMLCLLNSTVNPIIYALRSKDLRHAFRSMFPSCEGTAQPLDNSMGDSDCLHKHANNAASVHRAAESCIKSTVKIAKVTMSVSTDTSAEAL
T9 sequence (Q9HC97 whole entry): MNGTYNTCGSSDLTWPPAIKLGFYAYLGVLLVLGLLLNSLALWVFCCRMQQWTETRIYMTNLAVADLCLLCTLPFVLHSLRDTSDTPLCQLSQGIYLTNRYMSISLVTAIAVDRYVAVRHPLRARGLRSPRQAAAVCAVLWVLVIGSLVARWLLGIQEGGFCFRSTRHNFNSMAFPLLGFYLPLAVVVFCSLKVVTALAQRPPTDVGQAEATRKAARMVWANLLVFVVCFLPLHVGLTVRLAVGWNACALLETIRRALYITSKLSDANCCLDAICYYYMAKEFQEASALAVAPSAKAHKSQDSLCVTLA
Sequence of Hexokinase (Q38C41 whole entry): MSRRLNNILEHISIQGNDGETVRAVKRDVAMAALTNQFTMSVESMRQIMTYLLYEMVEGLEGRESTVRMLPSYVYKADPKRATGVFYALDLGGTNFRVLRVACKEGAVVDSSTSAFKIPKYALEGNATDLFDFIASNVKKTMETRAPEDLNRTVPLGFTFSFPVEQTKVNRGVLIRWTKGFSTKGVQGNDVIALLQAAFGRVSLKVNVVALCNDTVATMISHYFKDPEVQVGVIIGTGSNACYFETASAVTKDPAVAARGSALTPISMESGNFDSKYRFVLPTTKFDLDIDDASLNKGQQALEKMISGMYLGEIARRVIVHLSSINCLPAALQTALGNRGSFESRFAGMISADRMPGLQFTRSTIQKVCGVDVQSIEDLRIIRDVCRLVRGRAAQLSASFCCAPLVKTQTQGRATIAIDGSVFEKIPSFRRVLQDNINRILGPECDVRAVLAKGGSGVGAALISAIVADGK
Sequence of DNA dC->dU-editing enzyme APOBEC-3A (P31941 whole entry): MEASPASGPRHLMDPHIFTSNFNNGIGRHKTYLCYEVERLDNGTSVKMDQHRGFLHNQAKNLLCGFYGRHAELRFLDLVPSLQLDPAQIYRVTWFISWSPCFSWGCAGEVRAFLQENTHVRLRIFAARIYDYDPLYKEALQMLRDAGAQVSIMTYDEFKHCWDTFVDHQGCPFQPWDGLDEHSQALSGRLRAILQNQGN
Sequence of G-protein coupled receptor 55 (Q9Y2T6 whole entry): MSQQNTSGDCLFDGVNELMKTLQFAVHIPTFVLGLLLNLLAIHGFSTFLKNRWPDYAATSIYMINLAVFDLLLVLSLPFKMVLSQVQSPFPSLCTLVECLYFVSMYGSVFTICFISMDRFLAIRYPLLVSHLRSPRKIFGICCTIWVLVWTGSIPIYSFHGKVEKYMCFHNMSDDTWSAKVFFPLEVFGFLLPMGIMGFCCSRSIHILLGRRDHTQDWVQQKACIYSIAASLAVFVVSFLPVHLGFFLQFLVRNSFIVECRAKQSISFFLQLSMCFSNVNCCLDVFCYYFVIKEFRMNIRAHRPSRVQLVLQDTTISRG
Sequence of DNA dC->dU-editing enzyme APOBEC-3G (Q9HC16 whole entry): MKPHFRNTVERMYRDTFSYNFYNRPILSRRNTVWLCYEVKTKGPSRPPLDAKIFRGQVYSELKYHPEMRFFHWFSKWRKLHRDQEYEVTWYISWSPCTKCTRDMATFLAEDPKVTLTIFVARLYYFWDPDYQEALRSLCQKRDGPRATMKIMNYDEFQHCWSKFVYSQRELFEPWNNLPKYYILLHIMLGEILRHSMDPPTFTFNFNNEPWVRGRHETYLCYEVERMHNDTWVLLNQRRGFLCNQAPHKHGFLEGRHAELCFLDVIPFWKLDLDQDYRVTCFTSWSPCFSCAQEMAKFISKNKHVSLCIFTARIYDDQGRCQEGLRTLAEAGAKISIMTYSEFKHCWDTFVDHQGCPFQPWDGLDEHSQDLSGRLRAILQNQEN
Sequence of Albumin (P02769 whole entry): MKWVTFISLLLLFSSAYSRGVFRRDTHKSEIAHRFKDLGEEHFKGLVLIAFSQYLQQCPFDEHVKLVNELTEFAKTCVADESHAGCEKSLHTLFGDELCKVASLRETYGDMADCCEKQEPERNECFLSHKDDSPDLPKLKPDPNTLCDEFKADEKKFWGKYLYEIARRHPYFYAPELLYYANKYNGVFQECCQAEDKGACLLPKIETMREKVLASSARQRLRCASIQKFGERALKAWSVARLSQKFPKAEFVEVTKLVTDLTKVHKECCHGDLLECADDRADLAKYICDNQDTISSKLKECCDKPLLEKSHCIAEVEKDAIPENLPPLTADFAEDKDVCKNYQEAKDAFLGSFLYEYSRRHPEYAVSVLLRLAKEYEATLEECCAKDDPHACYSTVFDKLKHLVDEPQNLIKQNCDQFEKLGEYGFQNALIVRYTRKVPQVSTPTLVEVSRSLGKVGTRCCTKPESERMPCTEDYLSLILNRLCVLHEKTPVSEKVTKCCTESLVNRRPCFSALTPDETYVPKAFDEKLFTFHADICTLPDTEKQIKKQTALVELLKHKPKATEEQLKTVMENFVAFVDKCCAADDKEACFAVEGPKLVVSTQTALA
Sequence of NACHT, LRR and PYD domains-containing protein 3 (Q96P20 whole entry, the tested form may be a part): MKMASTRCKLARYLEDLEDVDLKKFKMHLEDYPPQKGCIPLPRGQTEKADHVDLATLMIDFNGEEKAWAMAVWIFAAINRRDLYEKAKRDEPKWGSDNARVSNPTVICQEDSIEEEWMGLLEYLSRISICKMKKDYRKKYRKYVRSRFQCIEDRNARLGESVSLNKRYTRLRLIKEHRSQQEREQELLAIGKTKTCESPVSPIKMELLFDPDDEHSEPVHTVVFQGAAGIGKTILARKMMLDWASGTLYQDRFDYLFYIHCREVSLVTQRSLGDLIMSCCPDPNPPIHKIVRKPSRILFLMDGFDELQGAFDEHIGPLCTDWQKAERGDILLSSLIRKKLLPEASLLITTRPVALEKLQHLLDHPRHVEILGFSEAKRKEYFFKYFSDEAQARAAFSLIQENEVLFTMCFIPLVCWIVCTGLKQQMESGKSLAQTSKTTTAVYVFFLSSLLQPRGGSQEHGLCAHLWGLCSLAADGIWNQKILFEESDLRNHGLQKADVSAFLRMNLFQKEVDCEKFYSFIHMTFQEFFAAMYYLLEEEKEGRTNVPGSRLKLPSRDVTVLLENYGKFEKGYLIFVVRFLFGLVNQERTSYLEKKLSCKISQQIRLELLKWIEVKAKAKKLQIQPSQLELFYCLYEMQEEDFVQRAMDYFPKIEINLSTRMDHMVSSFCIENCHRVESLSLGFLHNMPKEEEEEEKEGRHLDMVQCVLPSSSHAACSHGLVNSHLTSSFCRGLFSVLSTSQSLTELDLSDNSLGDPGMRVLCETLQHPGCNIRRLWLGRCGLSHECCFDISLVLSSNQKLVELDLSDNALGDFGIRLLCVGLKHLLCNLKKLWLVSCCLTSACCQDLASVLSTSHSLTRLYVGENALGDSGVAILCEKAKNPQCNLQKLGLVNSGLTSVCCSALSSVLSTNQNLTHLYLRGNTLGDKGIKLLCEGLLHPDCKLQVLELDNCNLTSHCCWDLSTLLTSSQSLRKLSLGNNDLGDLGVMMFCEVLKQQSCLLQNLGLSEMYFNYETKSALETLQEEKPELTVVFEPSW

## Cn1c(=O)c(C(=O)NNC(=O)c2ccccc2F)c(O)c2ccccc21
[1]
  EC50: 18.6 µM (active)
[2]
  EC50: > 150 µM (not active)
[3]
  EC50: 5.36 µM (active)
[4]
  EC50: 4.65 µM (active)
[5]
  IC50: 1.94 µM (active)
[6]
  IC50: > 94.1 µM (inactive)

## COc1ccccc1OC(C)C(=O)N1CCC(Cc2ccccc2)CC1 (stereo unspecified)
[7]
  IC50: 7.11 µM (active)
[8]
  IC50: 6.99 µM (active)

## NS(=O)(=O)c1cccc(C(=O)NC2CCSc3ccccc32)c1 (stereo unspecified)
[9]
  IC50: > 100 µM (inactive)
[10]
  IC50: > 100 µM (inactive)
[11]
  IC50: > 100 µM (inactive)
[12]
  IC50: > 100 µM (inactive)
[13]
  IC50: > 100 µM (inactive)

## CC(NC(=O)c1cc2cc([N+](=O)[O-])ccc2oc1=O)C1CCCO1 (stereo unspecified)
[14]
  EC50: 20.2 µM (inactive)
[15]
  EC50: 13.4 µM (inactive)

## CC(C)(C)c1ccc(C(=O)Nc2cc(Br)ccc2C(=O)O)cc1
[16]
  IC50: 2.39 µM (active)

## CCCc1cc(C(=O)Nc2cc(S(=O)(=O)N3CCOCC3)ccc2OC)sc1C
[17]
  IC50: > 32 µM (inactive)
[18]
  EC50: > 32 µM (inactive)
[19]
  IC50: > 32 µM (inactive)
[20]
  EC50: > 32 µM (inactive)
[21]
  EC50: > 32 µM (inactive)
[22]
  IC50: 7.68 µM (active)
[23]
  EC50: > 32 µM (inactive)

## O=C(NCCc1ccccc1)C(c1cccs1)N(C(=O)CCl)c1cccc(Cl)c1 (stereo unspecified)
[24]
  AC50: 0.154 µM (active)
[25]
  AC50: 0.331 µM (active)
[26]
  AC50: 0.544 µM (active)
[27]
  AC50: 0.156 µM (active)

## COc1ccc(N(C(=O)CCl)C(C)(C)C(=O)NCCc2ccccc2)cc1Cl
[24]
  AC50: 0.06 µM (active)
[25]
  AC50: 0.127 µM (active)
[26]
  AC50: 0.254 µM (active)
[27]
  AC50: 0.058 µM (active)

## COc1ccc2c(c1)cc(C)c1nnc(SCC(=O)Nc3nc(C)cs3)n12
[17]
  IC50: > 32 µM (inactive)
[18]
  EC50: > 32 µM (inactive)
[19]
  IC50: > 32 µM (inactive)
[20]
  EC50: > 32 µM (inactive)
[21]
  EC50: > 32 µM (inactive)
[22]
  IC50: > 32 µM (inactive)
[23]
  EC50: > 32 µM (inactive)

## CCN1CCN(c2ccc(S(=O)(=O)N3CCCCC3)cc2NC(=O)c2ccc(OC(F)F)cc2)CC1
[7]
  IC50: 10.9 µM (active)
[8]
  IC50: 9.05 µM (active)

## N#Cc1ccc(Oc2ccc3c(c2)B(O)OC3)cc1
[16]
  IC50: > 25 µM (inactive)
